Our source for the IC50 values is US20230078764A1 (Yumanity Therapeutics, Inc., priority 2019, published 2023).

Like-named read-outs stand apart in the source and are kept apart here. Where only a bound is given, the exact number is not on record here.

Format in all cases: cell-based
Test [1] has as its target human SCD1 (Homo sapiens, UniProt O00767). Briefly: Growth inhibition of yeast strain expressing human SCD1 as sole desaturase (OLE1 deleted), OD600 readout.
The target in test [2] is human SCD5 (Homo sapiens, UniProt Q86SK9). Description: Growth inhibition of yeast strain expressing human SCD5 as sole desaturase (OLE1 deleted), OD600 readout.
Test [3] has as its target T1, human SCD1 (Homo sapiens, UniProt O00767).
T1 construct: expressed in transfected cells; host or cells: yeast strain with OLE1 deleted, plasmid-borne human SCD1 (selected in SD-Ura)
T1 sequence (O00767 1-359): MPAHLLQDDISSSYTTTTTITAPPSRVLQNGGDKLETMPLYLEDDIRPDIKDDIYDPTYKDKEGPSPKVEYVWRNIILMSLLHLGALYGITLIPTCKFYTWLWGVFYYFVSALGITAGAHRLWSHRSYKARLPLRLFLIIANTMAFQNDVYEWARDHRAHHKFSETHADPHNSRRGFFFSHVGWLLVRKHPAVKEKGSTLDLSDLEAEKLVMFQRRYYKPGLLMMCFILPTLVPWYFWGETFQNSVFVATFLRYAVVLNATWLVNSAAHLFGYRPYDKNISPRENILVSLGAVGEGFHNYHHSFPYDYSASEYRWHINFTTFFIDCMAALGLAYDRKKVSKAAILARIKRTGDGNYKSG
Description: Growth inhibition of yeast strain expressing human SCD1 as sole desaturase (OLE1 deleted), OD600 readout.

Test [4] deals with T2, human SCD5 (Homo sapiens, UniProt Q86SK9).
T2 construct: expressed in transfected cells; host or cells: yeast strain with OLE1 deleted, plasmid-borne human SCD5 (selected in SD-Ura)
T2 sequence (Q86SK9 1-330): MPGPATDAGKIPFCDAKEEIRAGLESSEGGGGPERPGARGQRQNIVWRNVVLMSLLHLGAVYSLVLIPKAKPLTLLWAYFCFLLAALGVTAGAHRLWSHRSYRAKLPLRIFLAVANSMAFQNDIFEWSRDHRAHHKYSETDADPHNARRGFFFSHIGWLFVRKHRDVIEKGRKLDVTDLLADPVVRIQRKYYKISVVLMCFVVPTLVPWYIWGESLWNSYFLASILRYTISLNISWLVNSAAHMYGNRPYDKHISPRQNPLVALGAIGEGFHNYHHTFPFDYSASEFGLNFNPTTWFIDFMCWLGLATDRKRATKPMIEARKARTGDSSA
Description: Growth inhibition of yeast strain expressing human SCD5 as sole desaturase (OLE1 deleted), OD600 readout.

[5] abbreviates: yeast strain expressing human SCD1 as sole desaturase, growth (OD600) after 40 h at 30° C., read-out: SCD1 IC50.
[6] abbreviates: yeast strain expressing human SCD5 as sole desaturase, growth (OD600) after 40 h at 30° C., read-out: SCD5 IC50.

With `CN1N=C(C(=O)Nc2ncc(Cc3ccccc3)s2)CCC1=O`, the IC50 was 590 nM against human SCD1 [1] and 0.19 µM on human SCD5 [2].

For `CN1N=C(C(=O)Nc2ncc(Cc3cccc(Cl)c3)cn2)CCC1=O` [Compound 175, N-(5-(3-chlorobenzyl)pyrimidin-2-yl)-1-methyl-6-oxo-1,4,5,6-tetrahydropyridazine-3-carboxamide], the IC50 on human SCD1 [3] (setting [5]) was over 45000 nM; against human SCD5 [2], 20.1 µM.

Regarding `Cn1cc(C(=O)Nc2ccc(Cc3cccc(Cl)c3)nn2)ccc1=O` [Compound 183, N-(6-(3-chlorobenzyl)pyridazin-3-yl)-1-methyl-6-oxo-1,6-dihydropyridine-3-carboxamide], the IC50 was found to be 10700 nM at human SCD1 [3] (setting [5]) and 1410 nM at human SCD5 [4] (setting [6]).

For the molecule `O=C(Nc1ccc(Cc2cccc(F)c2)cn1)c1ncc(Br)cn1` [Compound 490], the IC50 at human SCD1 [3] (setting [5]) is over 45000 nM; on human SCD5 [4] (setting [6]), 2200 nM.

As for `N#Cc1ccc(C(=O)Nc2ccc(Cc3cc(F)cc(F)c3)cn2)cn1` [Compound 478], the IC50 on human SCD1 [3] (setting [5]) was found to be 2100 nM; on human SCD5 [4] (setting [6]) it was 19 nM.

As for `Cc1ccc(C(=O)Nc2ccc(Cc3cccc(Cl)c3)cn2)nn1` [Compound 243], the IC50 on human SCD1 [3] (setting [5]) worked out at 60 nM; at human SCD5 [4] (setting [6]), 10 nM.

In the case of `O=C(Nc1ccc(COc2ccc(F)c(Cl)c2)cn1)c1ccc(=O)n(C2CC2)c1` [Compound 365], the IC50 came to 25800 nM on human SCD1 [3] (setting [5]) and 4000 nM at human SCD5 [4] (setting [6]).

`Cn1nccc(NC(=O)c2ccc(Cc3cccc(Cl)c3)cn2)c1=O` [Compound 363]: the IC50 was 3160 nM on human SCD1 [3] (setting [5]) and 130 nM at human SCD5 [4] (setting [6]).

As for `O=C(Nc1ccc(Cc2cccc(F)c2)cn1)c1ncc(F)cn1` [Compound 504], the IC50 at human SCD1 [3] (setting [5]) was 2800 nM; on human SCD5 [4] (setting [6]), 260 nM.

For `Cn1cc(C(=O)Nc2ncc(Cc3cccc(F)c3)s2)ccc1=O` [Compound 224, N-(5-(3-fluorobenzyl)thiazol-2-yl)-1-methyl-6-oxo-1,6-dihydropyridine-3-carboxamide], the IC50 against human SCD1 [3] (SCD1 IC50) is 310 nM; against human SCD5 [4] (SCD5 IC50), 220 nM.

With `O=C(Nc1ccc(Cc2cccc(F)c2)cn1)c1ccc(=O)n(C2CCC2)n1` [Compound 421], the IC50 at human SCD1 [3] (setting [5]) and on human SCD5 [4] (setting [6]) was over 45000 nM in each case.

Regarding `N#Cc1cnc(NC(=O)c2ccc(Cc3cccc(F)c3)cn2)nc1` [Compound 627], the IC50 at human SCD1 [3] (setting [5]) was determined as 327 nM; at human SCD5 [4] (setting [6]), 10 nM.

Take `O=C(Nc1ccc(Cc2cccc(F)c2)cn1)c1ccc(=O)n(CC2CC2)n1` [Compound 77, 1-(cyclopropylmethyl)-N-(5-(3-fluorobenzyl)pyridin-2-yl)-6-oxo-1,6-dihydropyridazine-3-carboxamide]: the IC50 on human SCD1 [3] (setting [5]) was over 45000 nM; on human SCD5 [4] (setting [6]), 6730 nM.

Turning to `Cn1cc(C(=O)Nc2ccc(Oc3cc(F)cc(Cl)c3)cn2)ccc1=O` [Compound 589], the IC50 at human SCD1 [3] (setting [5]) turned out to be 2300 nM; at human SCD5 [4] (setting [6]), 150 nM.

Take `Cn1c(C(=O)Nc2ccc(Cc3cccc(Cl)c3)cn2)cc(=O)n1C` [Compound 460]: the IC50 on human SCD1 [3] (setting [5]) and at human SCD5 [4] (setting [6]) was over 45000 nM in each case.

Regarding `Cn1nc(C(=O)Nc2ccc(CNc3cccc(Cl)c3)cn2)ccc1=O` [Compound 174, N-(5-((3-Chlorophenylamino)methyl)pyridin-2-yl)-1-methyl-6-oxo-1,6-dihydropyridazine-3-carboxamide], the IC50 on human SCD1 [3] (setting [5]) stood at 7560 nM; at human SCD5 [4] (setting [6]), 80 nM.

Consider `N#Cc1cc(F)cc(Cc2ccc(NC(=O)c3ccnc(Cl)n3)nc2)c1` [Compound 666], for which the IC50 is 3600 nM on human SCD1 [3] (setting [5]) and 290 nM at human SCD5 [4] (setting [6]).

As for `Cn1cccc(C(=O)Nc2ccc(Cc3cccc(Cl)c3)cn2)c1=O` [Compound 330], the IC50 on human SCD1 [3] (setting [5]) worked out at 570 nM; at human SCD5 [4] (setting [6]), 10 nM.

Turning to `Cc1nccc(C(=O)Nc2ccc(Cc3cc(F)cc(C#N)c3)cn2)n1` [Compound 134, N-(5-(3-cyano-5-fluorobenzyl)pyridin-2-yl)-2-methylpyrimidine-4-carboxamide], the figures for the IC50 at human SCD1 [3] (setting [5]) and on human SCD5 [4] (setting [6]) were 90 nM and 10 nM, respectively.

For the molecule `Cn1cc(C(=O)Nc2ccc(Oc3cc(F)cc(F)c3)cn2)ccc1=O` [Compound 588], the IC50 was found to be 6200 nM at human SCD1 [3] (setting [5]) and 530 nM at human SCD5 [4] (setting [6]).

For the molecule `CN1N=C(C(=O)Nc2ccc(CC3=CCCCC3)cn2)CCC1=O` [Example 34, N-(5-(cyclohexenylmethyl)pyridin-2-yl)-1-methyl-6-oxo-1,4,5,6-tetrahydropyridazine-3-carboxamide], the results for the IC50 on human SCD1 [3] (setting [5]) and at human SCD5 [4] (setting [6]) were over 45000 nM and 710 nM, respectively.

In the case of `Cn1cc(C(=O)Nc2ccc(Cc3cccc(C(F)F)c3)cn2)ccc1=O` [Compound 545], the IC50 at human SCD1 [3] (setting [5]) is 710 nM; on human SCD5 [4] (setting [6]), 100 nM.

For the molecule `CCn1cc(C(=O)Nc2ccc(Cc3ccc(F)c(Cl)c3)cn2)ccc1=O` [Compound 82, N-(5-(3-chloro-4-fluorobenzyl)pyridin-2-yl)-1-ethyl-6-oxo-1,6-dihydropyridine-3-carboxamide], the half-maximal inhibitory concentration (IC50) at human SCD1 [3] (setting [5]) is over 45000 nM; on human SCD5 [4] (setting [6]), 30 nM.

With `Cn1cc(C(=O)Nc2ccc(Cc3cc(F)cc(C#N)c3)cn2)ccc1=O` [Example 25, N-(5-(3-cyano-5-fluorobenzyl)pyridin-2-yl)-1-methyl-6-oxo-1,6-dihydropyridine-3-carboxamide], the figures for the IC50 on human SCD1 [3] (SCD1 IC50) and on human SCD5 [4] (SCD5 IC50) were 4030 nM and 530 nM, respectively.

For `CN1CC(C(=O)Nc2ncc(Cc3cccc(F)c3)s2)CCC1=O` (stereo not drawn) [Compound 223, N-(5-(3-fluorobenzyl)thiazol-2-yl)-1-methyl-6-oxopiperidine-3-carboxamide], the IC50 was over 45000 nM at human SCD1 [3] (setting [5]) and 11300 nM at human SCD5 [4] (SCD5 IC50).

With `CCn1nc(C(=O)Nc2ccc(Cc3cc(F)cc(C#N)c3)cn2)ccc1=O` [Compound 69, N-(5-(3-cyano-5-fluorobenzyl)pyridin-2-yl)-1-ethyl-6-oxo-1,6-dihydropyridazine-3-carboxamide], the IC50 was over 45000 nM on human SCD1 [3] (setting [5]) and 270 nM on human SCD5 [4] (setting [6]).

`Cn1cc(C(=O)Nc2ccc(Cc3ccc(F)c(Cl)c3)cn2)ccc1=O` [Compound 60, N-(5-(3-chloro-4-fluorobenzyl)pyridin-2-yl)-1-methyl-6-oxo-1,6-dihydropyridine-3-carboxamide]: the values for the IC50 on human SCD1 [3] (SCD1 IC50) and against human SCD5 [4] (SCD5 IC50) were 4380 nM and 650 nM, respectively.

`O=C(Nc1ccc(Cc2cccc(Cl)c2)cn1)c1cnc(CO)c(F)c1` [Compound 290]: the half-inhibitory concentration (IC50) on human SCD1 [3] (setting [5]) and at human SCD5 [4] (setting [6]) was 10 nM each time.

On to `O=C(Nc1ccc(CO)nc1)c1ccc(Cc2cccc(Cl)c2)cn1` [Compound 132, 5-(3-Chlorobenzyl)-N-(6-(hydroxymethyl)pyridin-3-yl)picolinamide], for which the IC50 on human SCD1 [3] (setting [5]) and at human SCD5 [4] (setting [6]) was 10 nM each time.

As to `CS(=O)(=O)c1cccc(C(=O)Nc2ccc(Cc3cccc(F)c3)cn2)c1` [Compound 391], the IC50 was 1240 nM at human SCD1 [3] (setting [5]) and over 45000 nM at human SCD5 [4] (setting [6]).

`O=C(Nc1ccc(Cc2cccc(Cl)c2)cn1)c1cnc(CO)nc1` [Compound 494]: the IC50 on human SCD1 [3] (setting [5]) and on human SCD5 [4] (setting [6]) was 10 nM each time.

Take `Cn1cc(C(=O)Nc2ccc(Cc3ccc(C(F)(F)F)cc3)cn2)ccc1=O` [Compound 63, 1-methyl-6-oxo-N-(5-(4-(trifluoromethyl)benzyl)pyridin-2-yl)-1,6-dihydropyridine-3-carboxamide]: the values for the IC50 against human SCD1 [3] (SCD1 IC50) and at human SCD5 [4] (SCD5 IC50) were 380 nM and 320 nM, respectively.

For `Cn1c(C(=O)Nc2ccc(Cc3cccc(F)c3)cn2)cc(=O)n1C` [Compound 459], the IC50 at human SCD1 [3] (setting [5]) and on human SCD5 [4] (setting [6]) was over 45000 nM each time.

What is called IC50 is the point on the concentration scale where inhibition reaches its midpoint.
